Assay: RSV-A Assay : Hep-2 cells, (originally derived from tumors grown in irradiated-cortisonised weanling rats that had been injected with epidermoid carcinoma tissue from a person's larynx, but later found to be indistinguishable from HeLa cells by PCR DNA analysis), were used for the culturing of genotype A, “Long” strain RSV. Flasks were inoculated with RSV and viral stocks were collected once cytopathic effect (CPE) was greater than 90%. Viral stocks in 25% sucrose media were snap frozen using liquid nitrogen to increase viral stability. Viral stock titers were quantified by tissue culture infectious dose 50% (TCID50) using 8,000 cells per well and 3-fold viral dilutions across a 96-well plate, cultured for 4 days. Viral stock titers were also quantified by a plaque forming unit assay, as described elsewhere.Following extensive parameter testing, the final assay is run as follows: Hep-2 cells are seeded into the inner 60 wells of a 96-well plate at 8,000 cells per well in a volume of 50 μL using Growth Media (DMEM without phenol red, 1% L-Glut, 1% Penn/Strep, 1% nonessential amino acids, 10% heat-inactivated FBS). 2-fold serial dilutions of control and test compounds are added to the wells in duplicate in a total volume of 25 μL. Viral stock is then added to the wells at a multiplicity of infection (MOI) of 0.1 in a volume of 25 μL, bringing the total volume of each well to 100 μL. The MOI is calculated using the PFU/mL, or TCID50 if unavailable. Each 96-well plate has a control column of 6 wells with cells and virus but no compound (negative control, max CPE), a column with cells but no compound or virus (positive control, minimum CPE), and a column with no cells or virus or compound (background plate/reagent control). The control wells with cells but no virus are given an additional […], of growth media containing an equal quantity of sucrose as those wells receiving the viral stock in order to keep consistent in media and volume conditions. The outer wells of the plate are filled with 125 μL of moat media (DMEM, 1% Penn/Strep) to act as a thermal and evaporative moat around the test wells. Following a 5-day incubation period, the plates are read using ATPlite (50 uL added per well), which quantifies the amount of ATP (a measure of cell health) present in each well. Assay plates are read using the Envision luminometer.
With COc1cc(C(=O)NC[C@@](O)(c2cc3c(c(-c4ccc(F)cc4)n2)OC[C@@]3(N)C(F)(F)F)C(F)(F)F)ccc1OC1CC1 the EC50 was greater than 200 nM. In the case of COc1cc(C(=O)NC[C@](O)(c2cc3c(c(-c4ccc(F)cc4)n2)OC[C@@]3(N)C(F)(F)F)C(F)(F)F)ccc1OCCO, the EC50 is reported as greater than 200 nM. With Cc1ccc2cc(C(=O)NC[C@](O)(c3cc4c(c(-c5ccc(F)cc5)n3)OC[C@@]4(N)C(F)(F)F)C3CC3)cc(OC3CC3)c2n1 the EC50 was less than 200 nM. COc1cc(C(=O)NC[C@](O)(c2cc3c(c(-c4ccc(F)c(F)c4)n2)OC[C@@]3(N)C(F)(F)F)C2CC2)ccc1OC1CC1 gave an EC50 of less than 200 nM. Compound COC(=O)N[C@@]1(C(F)(F)F)COc2c1cc([C@@](O)(CNC(=O)c1ccc(OC3CC3)c(OC)c1)C(F)(F)F)nc2-c1ccc(F)cc1 has an EC50 greater than 200 nM. In the case of COc1cc(C(=O)NC[C@](O)(c2cc3c(c(-c4ccc(F)cc4)n2)OC[C@@]3(N)C(F)(F)F)C2CC2)cc2cn(C)nc12, the EC50 is reported as less than 200 nM.

From ChEMBL document CHEMBL5729275 (2022)
